Measurements taken from ChEMBL document CHEMBL5154732, “Discovery of indol-6-yl-pyrrolo[2,3-c]pyridin-7-one derivatives as bromodomain-containing protein 4 (BRD4) inhibitors for the treatment of kidney fibrosis” (Eur J Med Chem, 2022).
The source made the active and inactive calls. The rule behind the calls is not given here.

How the values were obtained:
[1] = biological target: Bromodomain-containing protein 4 (Homo sapiens, UniProt O60885); assay: Inhibition of His-tagged […] recombinant BRD4 (unknown origin) (21 to 153 residues) using SGRGK(Ac)GGK(Ac)GLGK(Ac)GGAK(Ac)RHRK(Biotin)-OH as substrate measured after 1 hr by HTRF assay
[2] = Cmax in ICR mouse at 30 mg/kg, po measured at 0.083 to 24 hrs by LC-MS/MS analysis; assay type: ADME, organism-based; set-up: time 0.083-24 hrs, dose 30 mg/kg, route po; conditions: in vivo
[3] = biological target: T1, Bromodomain-containing protein 1 (Homo sapiens, UniProt O95696); assay: Inhibition of His-tagged recombinant BRD1 (unknown origin) (11 to 190 residues) using SGRGK(Ac)GGK(Ac)GLGK(Ac)GGAK(Ac)RHRK(Biotin)-OH as substrate measured after 1 hr by HTRF assay
T1 sequence (O95696 whole entry): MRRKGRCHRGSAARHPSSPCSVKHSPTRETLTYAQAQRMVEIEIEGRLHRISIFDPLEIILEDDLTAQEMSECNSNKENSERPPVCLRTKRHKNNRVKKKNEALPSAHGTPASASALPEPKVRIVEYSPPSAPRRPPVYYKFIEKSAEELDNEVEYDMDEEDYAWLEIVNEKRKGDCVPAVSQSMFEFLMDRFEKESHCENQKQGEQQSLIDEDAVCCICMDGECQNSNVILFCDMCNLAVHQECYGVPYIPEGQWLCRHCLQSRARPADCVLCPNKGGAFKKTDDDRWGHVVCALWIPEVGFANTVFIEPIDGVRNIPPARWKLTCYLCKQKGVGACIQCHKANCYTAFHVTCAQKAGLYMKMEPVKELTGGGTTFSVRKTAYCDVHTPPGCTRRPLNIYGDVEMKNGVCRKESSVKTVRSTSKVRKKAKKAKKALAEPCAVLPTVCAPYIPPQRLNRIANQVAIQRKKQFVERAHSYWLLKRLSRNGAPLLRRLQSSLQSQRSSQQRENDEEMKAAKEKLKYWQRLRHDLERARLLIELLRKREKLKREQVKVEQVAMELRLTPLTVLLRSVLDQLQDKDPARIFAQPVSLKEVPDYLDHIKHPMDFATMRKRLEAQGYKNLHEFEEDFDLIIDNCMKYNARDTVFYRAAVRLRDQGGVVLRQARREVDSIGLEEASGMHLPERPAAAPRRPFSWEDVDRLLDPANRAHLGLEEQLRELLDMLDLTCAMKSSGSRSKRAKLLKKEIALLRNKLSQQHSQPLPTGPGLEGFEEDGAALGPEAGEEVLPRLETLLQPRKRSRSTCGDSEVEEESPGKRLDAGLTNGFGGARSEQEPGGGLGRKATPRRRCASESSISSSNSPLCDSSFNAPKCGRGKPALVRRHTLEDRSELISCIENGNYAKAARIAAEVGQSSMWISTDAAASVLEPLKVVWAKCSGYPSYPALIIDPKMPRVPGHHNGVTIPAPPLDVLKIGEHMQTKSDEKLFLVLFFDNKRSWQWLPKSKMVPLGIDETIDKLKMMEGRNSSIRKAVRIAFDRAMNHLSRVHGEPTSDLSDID

[4] = AUC (0 to t) in ICR mouse at 30 mg/kg, po measured at 0.083 to 24 hrs by LC-MS/MS analysis; assay type: ADME, organism-based; set-up: time lower 0.083 hrs, dose 30 mg/kg, time upper 24 hrs, route po; conditions: in vivo
[5] = Half life in ICR mouse at 30 mg/kg, po measured at 0.083 to 24 hrs by LC-MS/MS analysis; assay type: ADME, organism-based; conditions: in vivo, time 0.083-24 hrs
[6] = Toxicity in mouse assessed as pathological changes in lung at 30 mg/kg/day by H and E staining method; assay type: organism-based; conditions: in vivo
[7] = Clearance in ICR mouse at 2 mg/kg, iv measured at 0.083 to 24 hrs by LC-MS/MS analysis; assay type: ADME, organism-based; conditions: in vivo, time 0.083-24 hrs
[8] = Toxicity in mouse assessed as pathological changes in spleen at 30 mg/kg/day by H and E staining method; assay type: organism-based; conditions: in vivo
[9] = biological target: Bromodomain-containing protein 2 (Homo sapiens, UniProt P25440); assay: Inhibition of His-tagged recombinant BRD2 (unknown origin) (11 to 162 residues) using SGRGK(Ac)GGK(Ac)GLGK(Ac)GGAK(Ac)RHRK(Biotin)-OH as substrate measured after 1 hr by HTRF assay
Sequence of Bromodomain-containing protein 2 (P25440 whole entry, the tested form may be a part): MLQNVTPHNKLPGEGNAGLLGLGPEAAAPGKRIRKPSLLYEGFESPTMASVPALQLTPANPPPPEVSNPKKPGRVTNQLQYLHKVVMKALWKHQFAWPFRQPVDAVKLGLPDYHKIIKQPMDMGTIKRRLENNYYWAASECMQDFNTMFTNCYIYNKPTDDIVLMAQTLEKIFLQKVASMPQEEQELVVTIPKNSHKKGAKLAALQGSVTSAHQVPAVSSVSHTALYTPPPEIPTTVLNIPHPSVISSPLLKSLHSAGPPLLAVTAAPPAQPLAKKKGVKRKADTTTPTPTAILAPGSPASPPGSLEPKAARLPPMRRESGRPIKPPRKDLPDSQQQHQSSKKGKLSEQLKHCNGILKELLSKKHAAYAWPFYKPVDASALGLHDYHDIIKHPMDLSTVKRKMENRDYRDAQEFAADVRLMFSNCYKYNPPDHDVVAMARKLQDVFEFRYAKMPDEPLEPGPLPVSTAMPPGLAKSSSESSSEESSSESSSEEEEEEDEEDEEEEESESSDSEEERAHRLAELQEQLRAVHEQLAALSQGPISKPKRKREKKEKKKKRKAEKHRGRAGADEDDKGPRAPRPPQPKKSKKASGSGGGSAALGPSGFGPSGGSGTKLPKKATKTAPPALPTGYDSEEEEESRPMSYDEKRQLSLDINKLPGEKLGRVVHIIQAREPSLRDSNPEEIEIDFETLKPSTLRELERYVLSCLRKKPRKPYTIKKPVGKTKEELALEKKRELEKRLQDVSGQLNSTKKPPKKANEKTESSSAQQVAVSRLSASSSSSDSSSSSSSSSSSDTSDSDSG

[10] = Toxicity in mouse assessed as effect on alanine aminotransferase level in serum at 30 mg/kg/day; assay type: organism-based; conditions: in vivo
[11] = Toxicity in mouse assessed as effect on serum creatinine level at 30 mg/kg/day; assay type: organism-based; conditions: in vivo
[12] = biological target: Bromodomain testis-specific protein (Homo sapiens, UniProt Q58F21); assay: Inhibition of His-tagged recombinant BRDT (unknown origin) (21 to 153 residues) using SGRGK(Ac)GGK(Ac)GLGK(Ac)GGAK(Ac)RHRK(Biotin)-OH as substrate measured after 1 hr by HTRF assay
[13] = Toxicity in mouse assessed as pathological changes in heart at 30 mg/kg/day by H and E staining method; assay type: organism-based; conditions: in vivo
[14] = AUC (0 to infinity) in ICR mouse at 30 mg/kg, po measured at 0.083 to 24 hrs by LC-MS/MS analysis; assay type: ADME, organism-based; set-up: time lower 0.083 hrs, dose 30 mg/kg, time upper 24 hrs, route po; conditions: in vivo
[15] = biological target: Bromodomain-containing protein 3 (Homo sapiens, UniProt Q15059); assay: Inhibition of His-tagged recombinant BRD3 (unknown origin) (11 to 166 residues) using SGRGK(Ac)GGK(Ac)GLGK(Ac)GGAK(Ac)RHRK(Biotin)-OH as substrate measured after 1 hr by HTRF assay
Sequence of Bromodomain-containing protein 3 (Q15059 whole entry, the tested form may be a part): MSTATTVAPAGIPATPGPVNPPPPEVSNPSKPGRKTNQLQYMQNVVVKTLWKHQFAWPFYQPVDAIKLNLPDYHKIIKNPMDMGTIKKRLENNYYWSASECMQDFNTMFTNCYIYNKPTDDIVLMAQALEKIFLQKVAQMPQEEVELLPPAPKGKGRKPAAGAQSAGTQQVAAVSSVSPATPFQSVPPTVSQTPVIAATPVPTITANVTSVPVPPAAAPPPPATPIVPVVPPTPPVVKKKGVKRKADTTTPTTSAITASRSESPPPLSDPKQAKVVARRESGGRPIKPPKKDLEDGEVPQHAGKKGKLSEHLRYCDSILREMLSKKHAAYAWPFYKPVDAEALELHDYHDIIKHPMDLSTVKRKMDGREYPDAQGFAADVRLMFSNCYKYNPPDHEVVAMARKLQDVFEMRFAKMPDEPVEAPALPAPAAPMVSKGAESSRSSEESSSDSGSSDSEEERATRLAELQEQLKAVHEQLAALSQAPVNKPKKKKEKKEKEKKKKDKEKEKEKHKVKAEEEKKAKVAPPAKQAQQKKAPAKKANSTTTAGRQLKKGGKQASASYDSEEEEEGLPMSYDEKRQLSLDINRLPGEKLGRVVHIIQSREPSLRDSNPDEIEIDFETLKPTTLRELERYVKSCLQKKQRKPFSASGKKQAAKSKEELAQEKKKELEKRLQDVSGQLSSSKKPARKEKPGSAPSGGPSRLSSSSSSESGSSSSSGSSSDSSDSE

[16] = Volume of distribution at steady state in ICR mouse at 2 mg/kg, iv measured at 0.083 to 24 hrs by LC-MS/MS analysis; assay type: ADME, organism-based; conditions: in vivo, time 0.083-24 hrs, read-out: Vdss
[17] = Toxicity in mouse assessed as effect on serum urea level at 30 mg/kg/day; assay type: organism-based; conditions: in vivo
[18] = Toxicity in mouse assessed as effect on aspartate aminotransferase level in serum at 30 mg/kg/day; assay type: organism-based; conditions: in vivo
[19] = biological target: T2, Bromodomain and PHD finger-containing protein 3 (Homo sapiens, UniProt Q9ULD4); assay: Inhibition of His-tagged recombinant BRPF3 (unknown origin) (11 to 188 residues) using SGRGK(Ac)GGK(Ac)GLGK(Ac)GGAK(Ac)RHRK(Biotin)-OH as substrate measured after 1 hr by HTRF assay
T2 sequence (Q9ULD4 whole entry): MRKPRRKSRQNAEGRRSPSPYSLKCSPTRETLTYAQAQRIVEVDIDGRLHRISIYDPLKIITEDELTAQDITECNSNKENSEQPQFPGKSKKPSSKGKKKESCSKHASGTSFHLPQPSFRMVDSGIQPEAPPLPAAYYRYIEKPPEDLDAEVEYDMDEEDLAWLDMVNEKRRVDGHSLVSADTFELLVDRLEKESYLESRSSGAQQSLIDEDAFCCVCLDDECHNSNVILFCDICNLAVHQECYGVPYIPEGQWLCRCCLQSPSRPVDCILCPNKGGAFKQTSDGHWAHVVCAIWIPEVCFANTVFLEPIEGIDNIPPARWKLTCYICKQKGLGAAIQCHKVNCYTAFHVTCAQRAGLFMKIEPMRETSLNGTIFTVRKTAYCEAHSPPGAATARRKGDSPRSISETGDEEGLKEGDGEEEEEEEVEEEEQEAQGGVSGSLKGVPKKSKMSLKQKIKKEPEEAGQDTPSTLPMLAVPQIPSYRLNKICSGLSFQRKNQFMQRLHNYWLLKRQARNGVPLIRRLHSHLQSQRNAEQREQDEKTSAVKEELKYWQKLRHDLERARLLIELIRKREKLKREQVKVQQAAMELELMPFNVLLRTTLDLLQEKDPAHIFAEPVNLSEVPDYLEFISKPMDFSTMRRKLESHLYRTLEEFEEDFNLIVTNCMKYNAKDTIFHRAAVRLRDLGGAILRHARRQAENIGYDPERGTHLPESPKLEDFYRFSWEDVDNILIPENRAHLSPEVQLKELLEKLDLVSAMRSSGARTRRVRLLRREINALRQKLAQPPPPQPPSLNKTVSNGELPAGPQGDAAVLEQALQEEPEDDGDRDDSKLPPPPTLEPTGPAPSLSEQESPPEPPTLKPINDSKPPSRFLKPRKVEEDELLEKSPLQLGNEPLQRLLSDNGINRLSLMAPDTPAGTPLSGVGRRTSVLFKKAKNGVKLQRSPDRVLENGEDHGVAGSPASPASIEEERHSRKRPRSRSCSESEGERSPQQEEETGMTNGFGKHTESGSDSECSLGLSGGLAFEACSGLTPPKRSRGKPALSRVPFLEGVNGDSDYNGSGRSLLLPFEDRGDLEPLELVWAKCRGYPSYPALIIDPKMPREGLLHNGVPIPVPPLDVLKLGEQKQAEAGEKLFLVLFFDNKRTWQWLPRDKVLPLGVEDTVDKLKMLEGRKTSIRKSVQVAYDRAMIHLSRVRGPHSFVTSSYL

[20] = Oral bioavailability in ICR mouse at 30 mg/kg measured at 0.083 to 24 hrs by LC-MS/MS analysis; assay type: ADME, organism-based; conditions: in vivo, time 0.083-24 hrs
[21] = Tmax in ICR mouse at 30 mg/kg, po measured at 0.083 to 24 hrs by LC-MS/MS analysis; assay type: ADME, organism-based; conditions: in vivo, time 0.083-24 hrs
[22] = Toxicity in mouse assessed as pathological changes in liver at 30 mg/kg/day by H and E staining method; assay type: organism-based; conditions: in vivo
Mus musculus [23] = assay: Anti-fibrotic activity against unilateral ureteral obstruction kidney injury C57BL/6J mouse model assessed as suppression of UUO-induced alpha-SMA expression in kidney at 100 mg/kg, ip administered daily measured after 7 days by immunohistochemistry staining analysis; assay type: functional, organism-based; conditions: time 7.0 day
Mus musculus [24] = assay: Nephroprotective activity against unilateral ureteral obstruction kidney injury C57BL/6J mouse model assessed as decreased fibrotic scores at 100 mg/kg, ip administered for 8 consecutive days by Masson's staining based assay; assay type: functional, organism-based; conditions: time 8.0 day
Mus musculus [25] = assay: Nephroprotective activity against unilateral ureteral obstruction kidney injury C57BL/6J mouse model assessed as decreased tubular injury score at 100 mg/kg, ip administered for 8 consecutive days by H & E staining based assay; assay type: functional, organism-based; conditions: time 8.0 day
Mus musculus [26] = assay: Nephroprotective activity against unilateral ureteral obstruction kidney injury C57BL/6J mouse model assessed as decreased kidney damage at 100 mg/kg, ip administered for 8 consecutive days by H & E staining based assay; assay type: functional, organism-based; conditions: time 8.0 day

Cc1noc(C)c1-c1ccc2c(C)cn(Cc3cc(F)cc(F)c3)c2c1
IC50 [1]: > 3000 nM

Cc1noc(C)c1-c1ccc2ccn(C(C)c3ccccc3)c2c1 (stereo not drawn)
IC50 [1]: > 3000 nM

Cc1noc(C)c1-c1ccc2ccn(Cc3ccccn3)c2c1
IC50 [1]: 481 nM

Cc1noc(C)c1-c1ccc2ccn(C3CCCC3)c2c1
IC50 [1]: > 3000 nM

COc1cc(Cn2ccc3ccc(-c4c(C)noc4C)cc32)cc(OC)c1
IC50 [1]: > 3000 nM

O=C1NC=C(c2ccc3ccn(Cc4ccccc4)c3c2)C2C=CNC12 (stereo not drawn)
IC50 [1]: 471 nM

CCCC(C)n1ccc2ccc(C3=CNC(=O)C4NC=CC34)cc21 (stereo not drawn)
IC50 [1]: 578 nM

Cn1cc(-c2ccc3ccn(Cc4ccccn4)c3c2)c2cc[nH]c2c1=O
Cmax [2]: 390 ng/mL
IC50 [3]: > 1000 nM
AUC(0-t) [4]: 319 ng·h/mL
half-life [5]: 80.4 min
Activity [6]: Non-Toxic
clearance [7]: 125 mL/min/kg
Activity [8]: Non-Toxic
IC50 [9]: 718 nM
Activity [10]: Non-Toxic
IC50 [1]: 107 nM
Activity [11]: Non-Toxic
IC50 [12]: > 1000 nM
Activity [13]: Non-Toxic
AUC(0-inf) [14]: 323 ng·h/mL
IC50 [15]: 502 nM
Vd [16]: 2.08 L/kg
Activity [17]: Non-Toxic
Activity [18]: Non-Toxic
IC50 [19]: > 1000 nM
bioavailability [20]: 7.91%
Tmax [21]: 11.4 min
Activity [22]: Non-Toxic

CCC(C)n1ccc2ccc(-c3cn(C)c(=O)c4[nH]ccc34)cc21 (stereo not drawn)
IC50 [1]: 674 nM

Cc1noc(C)c1-c1ccc2ccn(Cc3ccccc3)c2c1
IC50 [1]: 2650 nM

Cc1cn(Cc2cc(F)cc(F)c2)c2cc(C3=CN(C)C(=O)C4NC=CC34)ccc12 (stereo not drawn)
IC50 [1]: 419 nM

Cc1noc(C)c1-c1ccc2ccn(Cc3cc(F)cc(F)c3)c2c1
IC50 [1]: > 3000 nM

O=C1NC=C(c2ccc3ccn(Cc4ccc(F)cc4)c3c2)C2C=CNC12 (stereo not drawn)
IC50 [1]: 417 nM

Cc1sc2c(c1C)C(c1ccc(Cl)cc1)=N[C@@H](C(=O)OC(C)(C)C)c1nnc(C)n1-2
Activity (Mus musculus [23]): Active
IC50 [1]: 92 nM
Activity (Mus musculus [24]): Active
Activity (Mus musculus [25]): Active
Activity (Mus musculus [26]): Active

CCCC(C)n1ccc2ccc(-c3c(C)noc3C)cc21 (stereo not drawn)
IC50 [1]: 2440 nM

CCC(C)n1ccc2ccc(-c3c(C)noc3C)cc21 (stereo not drawn)
IC50 [1]: > 3000 nM

O=C1NC=C(c2ccc3ccn(Cc4cc(F)cc(F)c4)c3c2)C2C=CNC12 (stereo not drawn)
IC50 [1]: 347 nM

COc1cc(Cn2ccc3ccc(C4=CNC(=O)C5NC=CC45)cc32)cc(OC)c1 (stereo not drawn)
IC50 [1]: 559 nM

CC(c1ccccc1)n1ccc2ccc(-c3cn(C)c(=O)c4[nH]ccc34)cc21 (stereo not drawn)
IC50 [1]: 504 nM

Cc1cn(Cc2ccccc2)c2cc(-c3cn(C)c(=O)c4[nH]ccc34)ccc12
IC50 [1]: 514 nM

Cc1noc(C)c1-c1ccc2ccn(Cc3ccc(C(F)(F)F)cc3)c2c1
IC50 [1]: > 3000 nM

Cc1noc(C)c1-c1ccc2c(C)cn(Cc3ccccc3)c2c1
IC50 [1]: > 3000 nM

Cc1noc(C)c1-c1ccc2ccn(Cc3ccc(F)cc3)c2c1
IC50 [1]: > 3000 nM
